Experimental data reported in patent publication US20260015350A1, “AZAQUINAZOLINE PAN-KRAS INHIBITORS” (Mirati Therapeutics, Inc., priority 2022, published 2026).

Key:
[1] = test system: KRas-mediated phosphorylation of ERK in AsPC-1 cells; test: Inhibition of KRas-mediated phosphorylation of ERK (Cisbio HTRF pERK), AsPC-1 cells; format: cell-based; conditions: Homo sapiens, ASPC1, AsPC-1 cells; HTRF pERK
Method: (§1) Inhibition of KRas Phosphorylation of ERK (HTRF) by Exemplary Compounds of Formula (I) Cisbio HTRF Advanced PERK Assay Catalog #64[…] […] Add 10 mL of media to stop trypsinizing. Pipette the cells into a conical bottom 50 mL centrifuge tube and centrifuge 5 min×1000 rpm. […] Re-suspend the cell pellet in media, take a cell count, and then adjust the cell density using fresh media. […] Seed 6,000 cells into cell culture plate with 50 μL media. […] Use Tecan to complete the compound addition. Compounds start from 10 uM top, 3-fold dilution, and 10 doses. The final DMSO concentration is 0.8%. Dispensed 0.2 uM Trametinib as Min control. […] Incubate cell plate for 3 hrs in the incubator. […] Dilute 1 volume of 4× lysis buffer with 3 volumes of deionized water. […] Keep lysis buffer on the ice. […] At the end of the compound treatment, flick-off the media. […] Add 35 μL of lysis buffer per well using a Multidrop Combi. Then place on a plate agitator shaking at 300 rpm at 4° C. for 40 mins. […] Make up the HTRF antibody buffer. For each assay plate, mix 50 μL of d2-conjugate antibody with 950 μL of detection buffer. Similarly, mix 50 μL of Cryptate antibody with 950 μL of detection buffer. Then mix the two diluted antibodies together. […] Dispense 3.4 μL the antibody buffer to wells of an empty assay plate. Seal the plate and centrifuge plate 30 sec×1000 rpm. […] At the end of the 4° C. lysis, centrifuge the lysate plates 3 mins×1500 rpm. […] Use the Bravo to transfer 13.6 μL of lysate from cell culture plate to assay plate. Then incubate assay plate for 2 hrs at room temperature. 8. At the end of incubation, read plate on the Envision after centrifuging plate 30 sec×1000 rpm.

KRas^G12R = target: T1, KRas^G12R (Homo sapiens, UniProt P01116, G12R); test: KRas binding assay (TR-FRET tracer displacement), KRas G12R
T1 construct: Biotinylated KRas (corresponding to amino acids 1-169, produced at Accelegan Inc.); biotin (biotinylated); purchased Accelegan Inc

KRas^G12V = target: T2, KRas^G12V (Homo sapiens, UniProt P01116, G12V); test: KRas binding assay (TR-FRET tracer displacement), KRas G12V
T2 construct: Biotinylated KRas (corresponding to amino acids 1-169, produced at Accelegan Inc.); biotin (biotinylated); purchased Accelegan Inc

KRas^G12D = target: T3, KRas^G12D (Homo sapiens, UniProt P01116, G12D); test: KRas binding assay (TR-FRET tracer displacement), KRas G12D
T3 construct: Biotinylated KRas (corresponding to amino acids 1-169, produced at Accelegan Inc.); biotin (biotinylated); purchased Accelegan Inc

[2] = test system: KRas-mediated phosphorylation of ERK in H727 cells; test: Inhibition of KRas-mediated phosphorylation of ERK (Cisbio HTRF pERK), H727 cells; format: cell-based; conditions: Homo sapiens, NCI-H727, H727 cells; HTRF pERK
Method: as §1

T1 sequence (P01116 1-169 isoform P01116-2 G12R): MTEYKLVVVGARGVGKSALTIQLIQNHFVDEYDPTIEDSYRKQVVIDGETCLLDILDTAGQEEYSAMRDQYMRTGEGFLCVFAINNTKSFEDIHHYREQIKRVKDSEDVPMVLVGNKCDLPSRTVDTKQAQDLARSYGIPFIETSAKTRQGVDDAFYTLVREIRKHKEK
T2 sequence (P01116 1-169 isoform P01116-2 G12V): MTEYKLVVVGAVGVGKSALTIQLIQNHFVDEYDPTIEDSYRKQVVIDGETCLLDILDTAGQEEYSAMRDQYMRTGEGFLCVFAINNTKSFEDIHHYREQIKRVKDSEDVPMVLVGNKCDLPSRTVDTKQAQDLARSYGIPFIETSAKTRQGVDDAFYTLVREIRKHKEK
T3 sequence (P01116 1-169 isoform P01116-2 G12D): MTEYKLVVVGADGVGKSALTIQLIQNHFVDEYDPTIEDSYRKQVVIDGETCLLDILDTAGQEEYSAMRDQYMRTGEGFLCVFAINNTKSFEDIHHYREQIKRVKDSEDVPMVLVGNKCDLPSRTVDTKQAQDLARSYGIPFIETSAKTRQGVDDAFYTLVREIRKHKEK

IC50 [1] [nM]	IC50 (KRas^G12R) [nM]	IC50 (KRas^G12V) [nM]	IC50 (KRas^G12D) [nM]	IC50 [2] [nM]	Compound
4610	76	103	434	2060	CCc1c(F)ccc2cc(O)cc(-c3ncc4c(NC56CCC(C#N)(CC5)CC6)nc(OC[C@@]56CCCN5C[C@H](F)C6)nc4c3F)c12 [Example 585, 4-((7-(8-ethyl-7-fluoro-3-hydroxynaphthalen-1-yl)-8-fluoro-2-(((2R,7aS)-2-fluorohexahydro-1H-pyrrolizin-7a-yl)methoxy)pyrido[4,3-d]pyrimidin-4-yl)amino)bicyclo[2.2.2]octane-1-carbonitrile]
> 10000	621	314	1780	> 10000	CCc1c(F)ccc2cc(O)cc(-c3ncc4c(N5Cc6n[nH]c(C(N)=O)c6C5)nc(OC[C@@]56CCCN5C[C@H](F)C6)nc4c3F)c12 [Example 588, 5-(7-(8-ethyl-7-fluoro-3-hydroxynaphthalen-1-yl)-8-fluoro-2-(((2R,7aS)-2-fluorotetrahydro-1H-pyrrolizin-7a(5H)-yl)methoxy)pyrido[4,3-d]pyrimidin-4-yl)-2,4,5,6-tetrahydropyrrolo[3,4-c]pyrazole-3-carboxamide]
> 10000	434	94	805	2450	CCc1c(F)ccc2cc(O)cc(-c3ncc4c(N5CCC(CC6CCOC6)C5)nc(OC[C@@]56CCCN5C[C@H](F)C6)nc4c3F)c12 (stereo partly drawn) [Example 596, 5-ethyl-6-fluoro-4-(8-fluoro-2-(((2R,7aS)-2-fluorohexahydro-1H-pyrrolizin-7a-yl)methoxy)-4-(3-((tetrahydrofuran-3-yl)methyl)pyrrolidin-1-yl)pyrido[4,3-d]pyrimidin-7-yl)naphthalen-2-ol]
5460	161	243	484	3870	CCc1c(F)ccc2cc(O)cc(-c3ncc4c(N5CCOC[C@@](C)(COC)C5)nc(OC[C@@]56CCCN5C[C@H](F)C6)nc4c3F)c12 [Example 602, 5-ethyl-6-fluoro-4-(8-fluoro-2-(((2R,7aS)-2-fluorotetrahydro-1H-pyrrolizin-7a(5H)-yl)methoxy)-4-((R)-6-(methoxymethyl)-6-methyl-1,4-oxazepan-4-yl)pyrido[4,3-d]pyrimidin-7-yl)naphthalen-2-ol]
> 10000	453	590	1630	> 10000	CCc1c(F)ccc2cc(O)cc(-c3ncc4c(N5CCC6(CC5)CC[S+]6[O-])nc(OC[C@@]56CCCN5C[C@H](F)C6)nc4c3F)c12 (stereo partly drawn) [Example 603, 7-(7-(8-ethyl-7-fluoro-3-hydroxynaphthalen-1-yl)-8-fluoro-2-(((2R,7aS)-2-fluorotetrahydro-1H-pyrrolizin-7a(5H)-yl)methoxy)pyrido[4,3-d]pyrimidin-4-yl)-1-thia-7-azaspiro[3.5]nonane 1-oxide]
4470	127	121	1530	1950	CCc1c(F)ccc2cc(O)cc(-c3ncc4c(N5CCC(Cc6ccn(C)n6)C5)nc(OC[C@@]56CCCN5C[C@H](F)C6)nc4c3F)c12 (stereo partly drawn) [Example 611, 5-ethyl-6-fluoro-4-(8-fluoro-2-(((2R,7aS)-2-fluorotetrahydro-1H-pyrrolizin-7a(5H)-yl)methoxy)-4-(3-((1-methyl-1H-pyrazol-3-yl)methyl)pyrrolidin-1-yl)pyrido[4,3-d]pyrimidin-7-yl)naphthalen-2-ol]

Continued, molecule first:

Compound	IC50 [1] [nM]	IC50 (KRas^G12R) [nM]	IC50 (KRas^G12V) [nM]	IC50 (KRas^G12D) [nM]	IC50 [2] [nM]
CCc1c(F)ccc2cc(O)cc(-c3ncc4c(N5CC6(CO)CC5CCO6)nc(OC[C@@]56CCCN5C[C@H](F)C6)nc4c3F)c12 (stereo partly drawn) [Example 572, 5-ethyl-6-fluoro-4-(8-fluoro-2-(((2R,7aS)-2-fluorohexahydro-1H-pyrrolizin-7a-yl)methoxy)-4-(1-(hydroxymethyl)-2-oxa-6-azabicyclo[3.2.1]octan-6-yl)pyrido[4,3-d]pyrimidin-7-yl)naphthalen-2-ol]	> 10000	162	266	1970	4190
CCc1c(F)ccc2cc(O)cc(-c3ncc4c(N[C@H](C)CN5CC(C)(O)C5)nc(OC[C@@]56CCCN5C[C@H](F)C6)nc4c3F)c12 [Example 577, 1-((R)-2-((7-(8-ethyl-7-fluoro-3-hydroxynaphthalen-1-yl)-8-fluoro-2-(((2R,7aS)-2-fluorohexahydro-1H-pyrrolizin-7a-yl)methoxy)pyrido[4,3-d]pyrimidin-4-yl)amino)propyl)-3-methylazetidin-3-ol]	8440	727	606	29	> 10000
CCc1c(F)ccc2cc(O)cc(-c3ncc4c(N5CCCC6(CC=CCO6)C5)nc(OC[C@@]56CCCN5C[C@H](F)C6)nc4c3F)c12 (stereo partly drawn) [Example 589, 5-ethyl-6-fluoro-4-(8-fluoro-2-(((2R,7aS)-2-fluorotetrahydro-1H-pyrrolizin-7a(5H)-yl)methoxy)-4-(1-oxa-8-azaspiro[5.5]undec-3-en-8-yl)pyrido[4,3-d]pyrimidin-7-yl)naphthalen-2-ol]	1540	12	16	38	731
CCc1c(F)ccc2cc(O)cc(-c3ncc4c(N5CCC(CC6CCCO6)C5)nc(OC[C@@]56CCCN5C[C@H](F)C6)nc4c3F)c12 (stereo partly drawn) [Example 597, 5-ethyl-6-fluoro-4-(8-fluoro-2-(((2R,7aS)-2-fluorotetrahydro-1H-pyrrolizin-7a(5H)-yl)methoxy)-4-(3-((tetrahydrofuran-2-yl)methyl)pyrrolidin-1-yl)pyrido[4,3-d]pyrimidin-7-yl)naphthalen-2-ol]	4800	194	82	867	2360
CCc1c(F)ccc2cc(O)cc(-c3ncc4c(N5CCC6(CNC(=O)OC6)C5)nc(OC[C@@]56CCCN5C[C@H](F)C6)nc4c3F)c12 (stereo partly drawn) [Example 598, 2-(7-(8-ethyl-7-fluoro-3-hydroxynaphthalen-1-yl)-8-fluoro-2-(((2R,7aS)-2-fluorotetrahydro-1H-pyrrolizin-7a(5H)-yl)methoxy)pyrido[4,3-d]pyrimidin-4-yl)-7-oxa-2,9-diazaspiro[4.5]decan-8-one]	> 10000	66	84	820	> 10000
CCc1c(F)ccc2cc(O)cc(-c3ncc4c(N5C6CNC(=O)CC5COC6)nc(OC[C@@]56CCCN5C[C@H](F)C6)nc4c3F)c12 (stereo partly drawn) [Example 599, 10-(7-(8-ethyl-7-fluoro-3-hydroxynaphthalen-1-yl)-8-fluoro-2-(((2R,7aS)-2-fluorohexahydro-1H-pyrrolizin-7a-yl)methoxy)pyrido[4,3-d]pyrimidin-4-yl)-8-oxa-3,10-diazabicyclo[4.3.1]decan-4-one]	> 10000	23	85	2120	> 10000
CCc1c(F)ccc2cc(O)cc(-c3ncc4c(N5CCC6(CC5)OCCC6O)nc(OC[C@@]56CCCN5C[C@H](F)C6)nc4c3F)c12 (stereo partly drawn) [Example 600, 8-(7-(8-ethyl-7-fluoro-3-hydroxynaphthalen-1-yl)-8-fluoro-2-(((2R,7aS)-2-fluorotetrahydro-1H-pyrrolizin-7a(5H)-yl)methoxy)pyrido[4,3-d]pyrimidin-4-yl)-1-oxa-8-azaspiro[4.5]decan-4-ol]	> 10000	886	880	5040	> 10000
CCc1c(F)ccc2cc(O)cc(-c3ncc4c(N5C[C@@H]6[C@@H](CC#N)NC(=O)[C@@H]6C5)nc(OC[C@@]56CCCN5C[C@H](F)C6)nc4c3F)c12 [Example 606, 2-((1R,3aS,6aR)-5-(7-(8-ethyl-7-fluoro-3-hydroxynaphthalen-1-yl)-8-fluoro-2-(((2R,7aS)-2-fluorohexahydro-1H-pyrrolizin-7a-yl)methoxy)pyrido[4,3-d]pyrimidin-4-yl)-3-oxooctahydropyrrolo[3,4-c]pyrrol-1-yl) acetonitrile]	> 10000	71	43	26	> 10000
